Measured values from publication PMC8776063, “Aurora Kinase A Is Involved in Controlling the Localization of Aquaporin-2 in Renal Principal Cells” (International Journal of Molecular Sciences, 2022).
Read-outs that look alike come from different tables or passages of the source.

How the values were obtained:
primary IMCD cells [1] = assay: F-actin stress fiber staining (phalloidin); format: cell-based, rat; settings: compound 20 µM, 1 h
DYRK1A = biological target: T1, DYRK1A (Homo sapiens, UniProt Q13627); assay: Thermal shift assay; format: binding; settings: read-out: ΔTm DYRK1A
T1 construct: purchased in-house thermal shift (DSF) kinase panel (SGC Frankfurt); Promega NanoBRET for AURKA/B/C

MAP2K6 = biological target: T2, MAP2K6 (Homo sapiens, UniProt P52564); assay: Thermal shift assay; format: binding; settings: read-out: ΔTm MAP2K6
T2 construct: purchased in-house thermal shift (DSF) kinase panel (SGC Frankfurt); Promega NanoBRET for AURKA/B/C
T2 sequence (P52564 47-334): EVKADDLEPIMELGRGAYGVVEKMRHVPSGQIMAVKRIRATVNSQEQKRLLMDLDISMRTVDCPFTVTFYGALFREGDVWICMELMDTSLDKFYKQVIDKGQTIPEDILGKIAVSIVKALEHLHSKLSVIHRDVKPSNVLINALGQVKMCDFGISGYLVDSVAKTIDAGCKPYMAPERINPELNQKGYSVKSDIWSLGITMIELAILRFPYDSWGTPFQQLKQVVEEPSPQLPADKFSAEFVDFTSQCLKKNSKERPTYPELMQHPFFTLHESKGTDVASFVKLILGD

GRK5 = biological target: T3, GRK5 (Homo sapiens, UniProt P34947); assay: Thermal shift assay; format: binding; settings: read-out: ΔTm GRK5
T3 construct: purchased in-house thermal shift (DSF) kinase panel (SGC Frankfurt); Promega NanoBRET for AURKA/B/C

DAPK3 = biological target: T4, DAPK3 (Homo sapiens, UniProt O43293); assay: Thermal shift assay; format: binding; settings: read-out: ΔTm DAPK3
T4 construct: purchased in-house thermal shift (DSF) kinase panel (SGC Frankfurt); Promega NanoBRET for AURKA/B/C

AURKB = AURKB (Homo sapiens, UniProt Q96GD4); assay: Thermal shift assay; format: binding; set-up: full-length wild-type AURKA, AURKB, and AURKC were obtained as plasmids cloned in frame with a C-terminal NanoLuc-fusion; settings: read-out: ΔTm AURKB
STK38L = biological target: T5, STK38L (Homo sapiens, UniProt Q9Y2H1); assay: Thermal shift assay; format: binding; settings: read-out: ΔTm STK38L
T5 construct: purchased in-house thermal shift (DSF) kinase panel (SGC Frankfurt); Promega NanoBRET for AURKA/B/C

CSNK1D = biological target: T6, CSNK1D (Homo sapiens, UniProt P48730); assay: Thermal shift assay; format: binding; settings: read-out: ΔTm CSNK1D
T6 construct: purchased in-house thermal shift (DSF) kinase panel (SGC Frankfurt); Promega NanoBRET for AURKA/B/C
T6 sequence (P48730 1-294): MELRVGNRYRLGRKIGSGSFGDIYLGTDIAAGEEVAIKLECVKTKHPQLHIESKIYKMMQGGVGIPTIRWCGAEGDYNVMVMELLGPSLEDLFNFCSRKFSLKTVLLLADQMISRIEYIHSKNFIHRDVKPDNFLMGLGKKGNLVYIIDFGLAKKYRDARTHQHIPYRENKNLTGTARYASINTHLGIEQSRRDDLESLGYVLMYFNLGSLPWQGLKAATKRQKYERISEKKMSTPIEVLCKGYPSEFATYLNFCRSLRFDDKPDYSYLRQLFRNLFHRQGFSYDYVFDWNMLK

MAP2K1 = biological target: T7, MAP2K1 (Homo sapiens, UniProt Q02750); assay: Thermal shift assay; format: binding; settings: read-out: ΔTm MAP2K1
T7 construct: purchased in-house thermal shift (DSF) kinase panel (SGC Frankfurt); Promega NanoBRET for AURKA/B/C

primary IMCD cells [2] = assay: AQP2 redistribution, immunofluorescence microscopy; settings: for inhibition of the AVP-induced redistribution of AQP2 to the plasma membrane: 1 h (Aurora-A inhibitor I 1-30 µM)
MCD4 cells = assay: AQP2 redistribution, immunofluorescence microscopy; settings: forskolin 30 µM, 30 min; for inhibition of the forskolin-induced redistribution of AQP2 to the plasma membrane: compound 30 µM, 1 h (Aurora-A inhibitor I 1-30 µM)
MAPK8 = biological target: T8, MAPK8 (Homo sapiens, UniProt P45983); assay: Thermal shift assay; format: binding; settings: read-out: ΔTm MAPK8
T8 construct: purchased in-house thermal shift (DSF) kinase panel (SGC Frankfurt); Promega NanoBRET for AURKA/B/C

MERTK = biological target: T9, MERTK (Homo sapiens, UniProt Q12866); assay: Thermal shift assay; format: binding; settings: read-out: ΔTm MERTK
T9 construct: purchased in-house thermal shift (DSF) kinase panel (SGC Frankfurt); Promega NanoBRET for AURKA/B/C
T9 sequence (Q12866 570-864): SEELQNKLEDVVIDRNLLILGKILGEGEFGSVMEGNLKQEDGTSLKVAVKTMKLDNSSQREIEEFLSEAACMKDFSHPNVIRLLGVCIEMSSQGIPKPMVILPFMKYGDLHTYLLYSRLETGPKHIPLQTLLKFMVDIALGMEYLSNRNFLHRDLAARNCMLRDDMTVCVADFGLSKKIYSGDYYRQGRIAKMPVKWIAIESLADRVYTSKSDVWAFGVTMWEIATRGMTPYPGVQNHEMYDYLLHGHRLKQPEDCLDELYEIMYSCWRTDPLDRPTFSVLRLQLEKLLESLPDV

FES = biological target: T10, FES (Homo sapiens, UniProt P07332); assay: Thermal shift assay; format: binding; settings: read-out: ΔTm FES
T10 construct: purchased in-house thermal shift (DSF) kinase panel (SGC Frankfurt); Promega NanoBRET for AURKA/B/C

CASK = biological target: T11, CASK (Homo sapiens, UniProt O14936); assay: Thermal shift assay; format: binding; settings: read-out: ΔTm CASK
T11 construct: purchased in-house thermal shift (DSF) kinase panel (SGC Frankfurt); Promega NanoBRET for AURKA/B/C
T11 sequence (O14936 1-337): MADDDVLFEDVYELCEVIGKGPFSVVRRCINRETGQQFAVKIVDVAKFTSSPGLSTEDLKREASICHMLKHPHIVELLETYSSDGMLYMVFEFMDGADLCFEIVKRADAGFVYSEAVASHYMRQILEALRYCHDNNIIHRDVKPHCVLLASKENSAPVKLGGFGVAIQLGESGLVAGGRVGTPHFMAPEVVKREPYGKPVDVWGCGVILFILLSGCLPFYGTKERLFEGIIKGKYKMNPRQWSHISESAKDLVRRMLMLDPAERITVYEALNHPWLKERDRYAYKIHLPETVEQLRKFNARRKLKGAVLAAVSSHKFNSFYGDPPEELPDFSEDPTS

STK10 = biological target: T12, STK10 (Homo sapiens, UniProt O94804); assay: Thermal shift assay; format: binding; settings: read-out: ΔTm STK10
T12 construct: purchased in-house thermal shift (DSF) kinase panel (SGC Frankfurt); Promega NanoBRET for AURKA/B/C

STK26 = biological target: T13, STK26 (Homo sapiens, UniProt Q9P289); assay: Thermal shift assay; format: binding; settings: read-out: ΔTm STK26
T13 construct: purchased in-house thermal shift (DSF) kinase panel (SGC Frankfurt); Promega NanoBRET for AURKA/B/C

BRAF = biological target: T14, BRAF (Homo sapiens, UniProt P15056); assay: Thermal shift assay; format: binding; settings: read-out: ΔTm BRAF
T14 construct: purchased in-house thermal shift (DSF) kinase panel (SGC Frankfurt); Promega NanoBRET for AURKA/B/C

CSNK2A1 = biological target: T15, CSNK2A1 (Homo sapiens, UniProt P68400); assay: Thermal shift assay; format: binding; settings: read-out: ΔTm CSNK2A1
T15 construct: purchased in-house thermal shift (DSF) kinase panel (SGC Frankfurt); Promega NanoBRET for AURKA/B/C

[3] = compound 20 µM, AVP 100 nM, 30 min

T7 sequence (Q02750 68-361): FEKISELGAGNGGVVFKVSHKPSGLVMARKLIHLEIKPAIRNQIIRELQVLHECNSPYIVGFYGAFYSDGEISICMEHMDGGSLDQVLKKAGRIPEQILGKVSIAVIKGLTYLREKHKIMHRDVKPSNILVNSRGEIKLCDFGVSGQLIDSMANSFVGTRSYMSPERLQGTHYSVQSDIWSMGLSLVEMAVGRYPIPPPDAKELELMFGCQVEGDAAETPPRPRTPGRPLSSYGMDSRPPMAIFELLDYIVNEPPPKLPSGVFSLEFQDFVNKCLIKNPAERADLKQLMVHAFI
AURKB, sequence (Q96GD4 whole entry, the tested form may be a part): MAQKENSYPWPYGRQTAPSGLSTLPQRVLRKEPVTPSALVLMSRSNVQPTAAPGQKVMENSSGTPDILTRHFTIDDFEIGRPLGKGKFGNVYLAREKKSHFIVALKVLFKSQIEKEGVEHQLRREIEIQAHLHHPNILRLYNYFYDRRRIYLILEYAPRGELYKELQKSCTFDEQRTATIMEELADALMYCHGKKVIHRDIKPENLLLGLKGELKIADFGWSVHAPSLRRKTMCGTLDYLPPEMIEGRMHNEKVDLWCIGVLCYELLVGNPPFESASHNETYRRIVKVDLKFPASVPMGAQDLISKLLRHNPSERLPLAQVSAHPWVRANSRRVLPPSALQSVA
T5 sequence (Q9Y2H1 90-453): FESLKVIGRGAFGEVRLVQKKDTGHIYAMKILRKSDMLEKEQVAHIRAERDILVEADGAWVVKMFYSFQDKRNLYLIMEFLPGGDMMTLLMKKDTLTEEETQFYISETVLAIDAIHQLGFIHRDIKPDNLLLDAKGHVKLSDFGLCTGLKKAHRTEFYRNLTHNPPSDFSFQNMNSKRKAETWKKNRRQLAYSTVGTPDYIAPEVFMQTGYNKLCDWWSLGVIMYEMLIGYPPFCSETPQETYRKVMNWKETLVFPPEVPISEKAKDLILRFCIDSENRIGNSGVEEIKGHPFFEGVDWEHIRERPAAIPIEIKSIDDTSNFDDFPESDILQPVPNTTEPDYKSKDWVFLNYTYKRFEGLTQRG
T12 sequence (O94804 18-317): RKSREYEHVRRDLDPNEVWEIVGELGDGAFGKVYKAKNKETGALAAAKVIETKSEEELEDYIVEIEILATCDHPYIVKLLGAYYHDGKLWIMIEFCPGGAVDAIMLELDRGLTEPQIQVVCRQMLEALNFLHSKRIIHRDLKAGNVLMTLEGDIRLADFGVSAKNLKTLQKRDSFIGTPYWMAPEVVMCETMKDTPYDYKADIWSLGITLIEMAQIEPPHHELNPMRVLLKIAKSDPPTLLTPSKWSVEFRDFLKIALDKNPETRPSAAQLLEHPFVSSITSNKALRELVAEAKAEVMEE
T8 sequence (P45983 1-364): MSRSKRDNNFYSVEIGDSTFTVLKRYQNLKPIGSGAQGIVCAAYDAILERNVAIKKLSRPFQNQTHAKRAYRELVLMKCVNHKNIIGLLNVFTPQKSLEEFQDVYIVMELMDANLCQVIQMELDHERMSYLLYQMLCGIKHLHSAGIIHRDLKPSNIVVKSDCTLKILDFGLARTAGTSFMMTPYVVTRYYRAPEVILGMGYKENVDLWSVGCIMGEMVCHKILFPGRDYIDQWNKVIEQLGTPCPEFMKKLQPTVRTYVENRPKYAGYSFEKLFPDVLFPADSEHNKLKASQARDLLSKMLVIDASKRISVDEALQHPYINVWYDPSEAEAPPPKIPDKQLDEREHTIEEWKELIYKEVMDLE
T14 sequence (P15056 448-723): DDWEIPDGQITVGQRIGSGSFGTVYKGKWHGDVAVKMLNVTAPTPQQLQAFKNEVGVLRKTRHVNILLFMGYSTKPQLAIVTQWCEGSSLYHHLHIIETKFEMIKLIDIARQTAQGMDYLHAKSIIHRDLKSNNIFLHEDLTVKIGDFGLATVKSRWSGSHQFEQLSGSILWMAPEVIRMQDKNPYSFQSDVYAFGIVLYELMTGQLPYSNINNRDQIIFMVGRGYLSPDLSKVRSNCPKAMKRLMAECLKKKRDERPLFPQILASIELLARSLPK
T10 sequence (P07332 whole entry): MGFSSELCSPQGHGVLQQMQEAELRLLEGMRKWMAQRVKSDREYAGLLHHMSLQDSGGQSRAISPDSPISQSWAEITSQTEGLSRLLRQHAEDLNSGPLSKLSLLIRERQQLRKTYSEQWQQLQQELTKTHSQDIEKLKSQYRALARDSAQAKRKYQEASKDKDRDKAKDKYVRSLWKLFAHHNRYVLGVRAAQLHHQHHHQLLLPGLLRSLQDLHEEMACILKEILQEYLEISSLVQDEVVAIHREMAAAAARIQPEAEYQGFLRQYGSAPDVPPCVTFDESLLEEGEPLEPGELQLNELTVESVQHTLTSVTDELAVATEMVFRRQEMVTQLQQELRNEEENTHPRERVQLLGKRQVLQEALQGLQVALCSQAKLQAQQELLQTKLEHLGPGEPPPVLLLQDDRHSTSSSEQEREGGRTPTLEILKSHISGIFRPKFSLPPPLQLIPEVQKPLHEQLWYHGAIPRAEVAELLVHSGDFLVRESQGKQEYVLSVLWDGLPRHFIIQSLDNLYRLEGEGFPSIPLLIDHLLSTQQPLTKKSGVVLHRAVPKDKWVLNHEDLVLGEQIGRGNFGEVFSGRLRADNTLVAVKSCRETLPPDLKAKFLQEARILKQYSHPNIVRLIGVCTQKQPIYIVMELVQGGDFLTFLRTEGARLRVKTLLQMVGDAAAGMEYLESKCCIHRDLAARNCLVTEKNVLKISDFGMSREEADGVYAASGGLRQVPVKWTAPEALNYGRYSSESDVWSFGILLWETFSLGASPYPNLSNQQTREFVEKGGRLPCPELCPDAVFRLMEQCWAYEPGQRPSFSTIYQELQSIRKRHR
T3 sequence (P34947 186-514): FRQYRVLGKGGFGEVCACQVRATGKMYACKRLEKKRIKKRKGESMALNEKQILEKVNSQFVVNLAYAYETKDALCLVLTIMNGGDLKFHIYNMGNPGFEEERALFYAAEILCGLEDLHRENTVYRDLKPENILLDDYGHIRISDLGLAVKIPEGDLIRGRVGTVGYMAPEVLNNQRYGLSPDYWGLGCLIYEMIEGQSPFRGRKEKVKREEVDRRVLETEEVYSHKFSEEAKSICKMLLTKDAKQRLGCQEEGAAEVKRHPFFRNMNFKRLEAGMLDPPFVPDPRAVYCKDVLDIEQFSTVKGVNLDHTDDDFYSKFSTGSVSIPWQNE
T4 sequence (O43293 9-289): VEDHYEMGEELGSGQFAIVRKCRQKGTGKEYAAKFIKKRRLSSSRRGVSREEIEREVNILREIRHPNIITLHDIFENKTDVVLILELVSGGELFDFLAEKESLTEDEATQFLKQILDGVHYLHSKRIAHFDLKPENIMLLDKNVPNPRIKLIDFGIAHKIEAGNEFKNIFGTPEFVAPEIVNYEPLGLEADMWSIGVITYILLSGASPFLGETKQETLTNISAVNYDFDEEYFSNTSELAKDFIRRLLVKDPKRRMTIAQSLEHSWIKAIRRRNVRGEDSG
T15 sequence (P68400 1-337): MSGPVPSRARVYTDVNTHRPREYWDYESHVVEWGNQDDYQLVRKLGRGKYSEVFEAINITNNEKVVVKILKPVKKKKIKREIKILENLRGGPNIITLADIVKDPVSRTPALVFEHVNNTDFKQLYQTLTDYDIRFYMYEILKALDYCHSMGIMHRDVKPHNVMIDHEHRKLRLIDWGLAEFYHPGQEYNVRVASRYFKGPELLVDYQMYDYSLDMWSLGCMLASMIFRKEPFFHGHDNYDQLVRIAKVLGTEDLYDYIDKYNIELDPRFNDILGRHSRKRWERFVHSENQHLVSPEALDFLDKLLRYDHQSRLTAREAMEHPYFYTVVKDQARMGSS
T13 sequence (Q9P289 1-300): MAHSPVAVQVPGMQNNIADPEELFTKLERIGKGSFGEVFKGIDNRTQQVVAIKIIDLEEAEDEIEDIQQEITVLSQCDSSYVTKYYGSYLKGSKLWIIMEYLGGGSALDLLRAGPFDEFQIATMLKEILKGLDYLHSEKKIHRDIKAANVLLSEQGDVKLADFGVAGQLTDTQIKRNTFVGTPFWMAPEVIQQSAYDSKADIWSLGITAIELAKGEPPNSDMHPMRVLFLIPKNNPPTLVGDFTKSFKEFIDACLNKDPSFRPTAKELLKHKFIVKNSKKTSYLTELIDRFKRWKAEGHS

SMILES	effect on actin stress fibers (primary IMCD cells [1])	inhibition of the AVP-induced redistribution of AQP2 to the plasma membrane (primary IMCD cells [2]; [3])	inhibition of the forskolin-induced redistribution of AQP2 to the plasma membrane (MCD4 cells)	ΔTm at 10 µM (DYRK1A; compound 10 µM, n = 3) [°C]	ΔTm at 10 µM (MAP2K6; compound 10 µM, n = 3) [°C]	ΔTm at 10 µM (GRK5; compound 10 µM, n = 3) [°C]	ΔTm at 10 µM (DAPK3; compound 10 µM, n = 3) [°C]	ΔTm at 10 µM (AURKB; compound 10 µM, n = 3) [°C]	ΔTm at 10 µM (STK38L; compound 10 µM, n = 3) [°C]	ΔTm at 10 µM (CSNK1D; compound 10 µM, n = 3) [°C]	ΔTm at 10 µM (MAP2K1; compound 10 µM, n = 3) [°C]	ΔTm at 10 µM (MAPK8; compound 10 µM, n = 3) [°C]	ΔTm at 10 µM (MERTK; compound 10 µM, n = 3) [°C]	ΔTm at 10 µM (FES; compound 10 µM, n = 3) [°C]	ΔTm at 10 µM (CASK; compound 10 µM, n = 3) [°C]	ΔTm at 10 µM (STK10; compound 10 µM, n = 3) [°C]	ΔTm at 10 µM (STK26; compound 10 µM, n = 3) [°C]	ΔTm at 10 µM (BRAF; compound 10 µM, n = 3) [°C]	ΔTm at 10 µM (CSNK2A1; compound 10 µM, n = 3) [°C]	further results
CCN1CCN(C(=O)Cc2ccc(Nc3ncc(F)c(Nc4ccc(C(=O)Nc5ccccc5Cl)cc4)n3)cc2)CC1 [Aurora-A inhibitor I, reference compound]	depolymerization of actin stress fibers	inhibits	inhibits	–	–	–	–	–	–	–	–	–	–	–	–	–	–	–	–	ΔTm at 10 µM (DYRK1A): 0.4 °C; ΔTm at 10 µM (MAP2K6): 0.6 °C; ΔTm at 10 µM (GRK5): 0.2 °C; ΔTm at 10 µM (DAPK3): 2.8 °C; ΔTm at 10 µM (AURKB): -0.5 °C; ΔTm at 10 µM (STK38L): 2.1 °C; ΔTm at 10 µM (CSNK1D): 0.2 °C; ΔTm at 10 µM (MAP2K1): 0.2 °C; effective concentration for inhibition of AQP2 redistribution (primary IMCD cells [2]; 1, 10 or 30 µM, 1 h, AVP 100 nM, 30 min): greater than 1 µM; effective concentration for inhibition of AQP2 redistribution (MCD4 cells; 1, 10 or 30 µM, 1 h): greater than 1 µM; ΔTm at 10 µM (MAPK8): 3.7 °C; ΔTm at 10 µM (MERTK): 1.7 °C; ΔTm at 10 µM (FES): 1.4 °C; ΔTm at 10 µM (CASK): 0.2 °C; ΔTm at 10 µM (STK10): 3.8 °C; ΔTm at 10 µM (STK26): 0.6 °C; ΔTm at 10 µM (BRAF): 1.1 °C; ΔTm at 10 µM (CSNK2A1): 1.1 °C
O=C(Cc1ccc(Nc2ncc(F)c(Nc3ccc(C(=O)Nc4ccccc4Cl)cc3)n2)cc1)NCCN1CCOCC1 [ERJ2-04]	Comparable effects	no significant difference between resting and AVP-stimulated cells	not different from that in cells treated with the compound solvent, DMSO	-0.7	0.4	0.2	2.4	-0.8	1.5	0	0	3.2	0.9	0.5	0.1	0.6	0.4	0.8	1.3	–
NC(=O)Cc1ccc(Nc2ncc(F)c(Nc3ccc(C(=O)Nc4ccccc4Cl)cc3)n2)cc1 [ERJ2-06]	Comparable effects	no significant difference between resting and AVP-stimulated cells	–	0.8	0.8	0	4.8	0.5	2.5	0	0	3.7	1.3	1.4	0.1	1.4	1.7	0.5	1.6	–
CCN1CCN(C(=O)Cc2ccc(Nc3ncc(F)c(Nc4ccc(C(=O)Nc5ccccc5)cc4)n3)cc2)CC1 [ERJ2-11]	promoted or maintained the formation of actin stress fibers	no significant difference between resting and AVP-stimulated cells	–	-0.6	0.7	0.2	3.5	-0.2	2.6	0.2	0	3.8	1.7	1.7	-0.1	4.8	1.3	1.8	1.1	AQP2 fluorescence intensity ratio compared to DMSO-treated control cells (primary IMCD cells [2]; compound 20 µM, 1 h): significant decrease
CCN1CCN(C(=O)Cc2ccc(Nc3ncc(F)c(Nc4ccc(C(=O)O)cc4)n3)cc2)CC1 [ERJ2-12]	resembled those of the control cells	significantly differed	not different from that in cells treated with the compound solvent, DMSO	-1.3	0.8	0.2	0.7	-2.5	0.2	0.2	-0.1	4.2	0.3	0.4	0	2.2	-0.2	0.7	1.3	–
